Experiments:
Type in all cases: cell-based, human
[1] = tested on: HMGN1; experiment: HMGN1 ELISA in culture medium of A549 cancer cells (Example 12, Table 66); details: Homo sapiens, A549, doxorubicin-induced senescent A549 cells, ELISA, DMSO = 100, read-out: HMGN1 (amount of HMGN1 secreted in the cell culture); for activity at 30 µM: test compound 30 μM; for activity at 90 µM: test compound 90 μM
[2] = tested on: A549; experiment: CellTiter-Glo cell viability of senescent A549 cancer cells (Example 12, Table 67); details: Homo sapiens, A549, doxorubicin-induced senescent A549 cancer cells, CellTiter-Glo, read-out: Survival (%); for viability at 1.1 µM: 1.1 μM test compound; for viability at 10 µM: 10 μM test compound; for viability at 30 µM: 30 μM test compound; for viability at 90 µM: 90 μM test compound
[3] = tested on: foreskin cells in which senescence was induced by doxorubicin; experiment: CellTiter-Glo cell viability of doxorubicin-induced senescent foreskin cells (Examples 1-2, 10, 11, 13; Tables 4, 63, 65); details: Homo sapiens, 72 h, doxorubicin-induced senescent foreskin cells, CellTiter-Glo, 0 μM = 100, read-out: Survival (%); for viability at 1.1 µM: 1.1 μM test compound; for viability at […]: […] test compound; for viability at 10 µM: 10 μM test compound; for viability at 30 µM: 30 μM test compound
Procedure: After 3 days, cell viability was measured using CellTiter-Glo Luminescent Cell Viability Assay (Promega) or light microscopy.

[4] = tested on: HMGN1; experiment: HMGN1 ELISA in culture medium of foreskin cells (Examples 10, 11; Tables 62, 63, 64); details: Homo sapiens, doxorubicin-treated foreskin cells, DMSO = 100; for activity at 30 µM: 30 μM test compound, read-out: HMGN1

Cc1onc(C(=O)N2CCN(C(c3ccc(Cl)cc3)c3ccc(OCc4cn(CCOCCNc5cccc6c5C(=O)N(C5CCC(=O)NC5=O)C6=O)nn4)cc3)CC2)c1[N+](=O)[O-] (centres unmarked) [LX-431, 4-((2-(2-(4-((4-((4-chlorophenyl)(4-(5-methyl-4-nitroisooxazol-3-carbonyl)piperazin-1-yl)methyl)phenoxy)methyl)-1H-1,2,3-triazol-1-yl)ethoxy)ethyl)amino)-2-(2,6-dioxopiperidin-3-yl)isoindolin-1,3-dione]
activity at 30 µM [1]: 283%
viability at 1.1 µM [2]: 94.6%
viability at 1.1 µM [3]: 89.5%
viability at […] [3]: 12.6%
activity at 30 µM [4]: 312%

C[C@@H]1C(=O)[C@]2(C#N)O[C@@H]2[C@]2(C)C3=CC(=O)[C@@H]4[C@@H]5CC(C)(C)CC[C@]5(NC(=O)C(C)(F)F)CC[C@@]4(C)[C@]3(C)CC[C@@H]12 [LX-2319]
activity at 30 µM [1]: 310%
viability at 1.1 µM [2]: 96.5%
viability at 10 µM [2]: 21.3%
viability at 1.1 µM [3]: 52.9%
viability at […] [3]: 21.9%
activity at 30 µM [4]: 241%

Cc1cc(-c2ccc(-n3nc(-c4ccccc4F)c4c3[C@]3(C)C=C(C#N)C(=O)[C@H](C)[C@H]3CC4)cc2)cnn1 [LX-2506]
activity at 30 µM [1]: 267%
viability at 1.1 µM [2]: 98.3%
viability at 10 µM [2]: 26.4%
viability at 1.1 µM [3]: 91%
viability at […] [3]: 11.8%
activity at 30 µM [4]: 279%

C[C@@H]1C(=O)C(C#N)=C[C@]2(C)C3=CC(=O)[C@@H]4[C@@H]5CC(C)(C)CC[C@]5(NC(=O)C(C)(F)F)CC[C@@]4(C)[C@]3(C)CC[C@@H]12 [LX-2201]
activity at 30 µM [1]: 326%
viability at 1.1 µM [2]: 28.4%
viability at 1.1 µM [3]: 9.8%
activity at 30 µM [4]: 318%

COC(=O)[C@]12CCC(C)(C)C[C@H]1[C@H]1C(=O)C=C3[C@@]4(C)C=C(C#N)C(=O)[C@@H](C)[C@@H]4CC[C@@]3(C)[C@]1(C)CC2 [LX-2316]
activity at 30 µM [1]: 263%
viability at 1.1 µM [2]: 106%
viability at 10 µM [2]: 25.4%
viability at 1.1 µM [3]: 36.6%
viability at […] [3]: 0.9%
activity at 30 µM [4]: 274%

Nc1cccc2c1CN(C1CCC(=O)NC1=O)C2=O (centres unmarked) [LX-3207, Lenalidomide, reference compound]
activity at 30 µM [1]: 222%
viability at 1.1 µM [2]: 101%
viability at 10 µM [2]: 76.4%
viability at 30 µM [2]: 18.9%
viability at 1.1 µM [3]: 99.3%
viability at 10 µM [3]: 56.4%
viability at 30 µM [3]: 17.9%
viability at […] [3]: 91.9%
activity at 30 µM [4]: 219%

COC(=O)/C=C\C(C#N)(C#N)/N=C/c1ccc(C)cc1 [LX-920]
activity at 90 µM [1]: 197%
viability at 1.1 µM [2]: 98.4%
viability at 10 µM [2]: 95.3%
viability at 30 µM [2]: 93.9%
viability at 90 µM [2]: 25.1%
viability at 1.1 µM [3]: 100%
viability at 10 µM [3]: 86.2%
viability at 30 µM [3]: 23.8%
viability at […] [3]: 95.4%
activity at 30 µM [4]: 278%

CCCCS[C@@H]1O[C@@H]2O[C@@]3(C)CCC4[C@H](C)CCC([C@H]1C)[C@]42OO3 (some centres unmarked) [LX-503]
activity at 30 µM [1]: 333%
viability at 1.1 µM [2]: 34.4%
viability at 1.1 µM [3]: 25.1%
activity at 30 µM [4]: 284%

C#CC(=O)N1[C@@H](CCCC)Cc2c([nH]c3ncccc23)[C@@H]1c1ccc(F)cc1 [LX-419]
activity at 30 µM [1]: 313%
viability at 1.1 µM [2]: 25.1%
viability at 1.1 µM [3]: 10.3%
activity at 30 µM [4]: 274%

CCCCC/C=C\C/C=C\CCCCCCCC(=O)O [LX-2703, Linoleic acid]
activity at 90 µM [1]: 202%
viability at 1.1 µM [2]: 101%
viability at 10 µM [2]: 99.6%
viability at 30 µM [2]: 71.5%
viability at 90 µM [2]: 28.3%
viability at 1.1 µM [3]: 100%
viability at 10 µM [3]: 89.5%
viability at 30 µM [3]: 55.2%
viability at 90 µM ([3]; 90 μM test compound): 35.2%
viability at […] [3]: 100%
activity at 90 µM ([4]; 90 μM test compound): 218%

CC1(C)CC[C@]2(NS(C)(=O)=O)CC[C@]3(C)[C@H](C(=O)C=C4[C@@]5(C)C=C(C#N)C(=O)C(C)(C)[C@@H]5CC[C@]43C)[C@@H]2C1 [LX-2306]
activity at 30 µM [1]: 296%
viability at 1.1 µM [2]: 102%
viability at 10 µM [2]: 11.5%
viability at 1.1 µM [3]: 29.8%
viability at […] [3]: 7.1%
activity at 30 µM [4]: 301%

Reference: US20250108036A1, “COMPOSITIONS FOR REMOVING SENESCENT CELLS AND USES THEREOF” (LIFECEUTIX CO., LTD., priority 2021, published 2025)
